Tested on: TS/A (ER+, Her2−) murine mammary cancer cells
Experiment: MTT cell viability assay, TS/A cells
Assay type: cell-based
Conditions: Mus musculus, 24 h, read-out: IC50 on cell viability, TS/A (ER+, Her2−)
Procedure, shortened: (§1)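 Cells were seeded at 2×10^3 to 1×10^4 per well overnight, then exposed to compounds for 24 h to 72 h. Viability was read by MTT at OD570 as a percentage of the 0.5% DMSO vehicle control.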

| SMILES | IC50 [µM] |
| --- | --- |
| C=C1C(=O)OC2CC3=C[C@@H](C/C(C)=C/C(OC(=O)/C=C/c4ccc(Cl)cc4)[C@H]12)OC3=O (some centres unmarked) [DETD-28] | 1.8 |
| C=C1C(=O)OC2CC3=C[C@@H](C/C(C)=C/[C@@H](OC(=O)Cc4csc5ccccc45)[C@H]12)OC3=O (some centres unmarked) [DETD-58] | 2.1 |

Tested on: MDA-MB-231 (ER−, PR−, Her2−) human breast cancer cells
Experiment: MTT cell viability assay, MDA-MB-231 cells
Assay type: cell-based
Conditions: Homo sapiens, MDA-MB-231, 24 h, read-out: IC50 on cell viability, MDA-MB-231 (ER−, PR−, Her2−)
Procedure, shortened: as §1

| SMILES | IC50 [µM] |
| --- | --- |
| C=C1C(=O)OC2CC3=C[C@@H](C/C(C)=C/C(OC(=O)/C=C/c4ccc(Cl)cc4)[C@H]12)OC3=O (some centres unmarked) [DETD-28] | 4.2 |
| C=C1C(=O)OC2CC3=C[C@@H](C/C(C)=C/[C@@H](OC(=O)Cc4csc5ccccc45)[C@H]12)OC3=O (some centres unmarked) [DETD-58] | 3.8 |

Tested on: MCF-7 (ER+, Her2−) human breast cancer cells
Experiment: MTT cell viability assay, MCF-7 cells
Assay type: cell-based
Conditions: MCF7, 24 h, read-out: IC50 on cell viability, MCF-7 (ER+, Her2−)
Procedure, shortened: as §1

| SMILES | IC50 [µM] |
| --- | --- |
| C=C1C(=O)OC2CC3=C[C@@H](C/C(C)=C/C(OC(=O)/C=C/c4ccc(Cl)cc4)[C@H]12)OC3=O (some centres unmarked) [DETD-28] | 3.6 |
| C=C1C(=O)OC2CC3=C[C@@H](C/C(C)=C/[C@@H](OC(=O)Cc4csc5ccccc45)[C@H]12)OC3=O (some centres unmarked) [DETD-58] | 3.8 |

Tested on: M10 normal mammary epithelial cells
Experiment: MTT cell viability assay, M10 normal cells
Assay type: cell-based, human
Conditions: Homo sapiens, Epithelial cell, 24 h
Procedure, shortened: as §1

| SMILES | IC50 [µM] |
| --- | --- |
| C=C1C(=O)OC2CC3=C[C@@H](C/C(C)=C/C(OC(=O)/C=C/c4ccc(Cl)cc4)[C@H]12)OC3=O (some centres unmarked) [DETD-28] | 4.8 |
| C=C1C(=O)OC2CC3=C[C@@H](C/C(C)=C/[C@@H](OC(=O)Cc4csc5ccccc45)[C@H]12)OC3=O (some centres unmarked) [DETD-58] | 5.8 |

Tested on: B16-F10 (NRAS mutation)
Experiment: MTT cell viability assay, B16-F10 melanoma
Assay type: cell-based
Conditions: Mus musculus, B16-F10, 24 h, 24 h, read-out: IC50 on cell viability, B16-F10 (NRAS mutation)
Procedure, shortened: (§2)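 Cells (2×10^3 to 1×10^4/well) seeded overnight, then exposed to compounds for 24 h to 72 h. Growth read by MTT colorimetry at OD570. Viability expressed as % of vehicle (0.5% DMSO) control.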

| SMILES | IC50 [µM] |
| --- | --- |
| C=C1C(=O)OC2CC3=C[C@@H](C/C(C)=C/C(OC(=O)/C=C/c4ccc(Cl)cc4)[C@H]12)OC3=O (some centres unmarked) [DETD-28] | 3.9 |
| C=C1C(=O)OC2CC3=C[C@@H](C/C(C)=C/[C@@H](OC(=O)Cc4csc5ccccc45)[C@H]12)OC3=O (some centres unmarked) [DETD-58] | 5.6 |

Tested on: MeWo (No NRAS or BRAF mutation)
Experiment: MTT cell viability assay, MeWo melanoma
Assay type: cell-based, human
Conditions: Homo sapiens, MeWo, 24 h
Procedure, shortened: as §2

| SMILES | IC50 [µM] |
| --- | --- |
| C=C1C(=O)OC2CC3=C[C@@H](C/C(C)=C/C(OC(=O)/C=C/c4ccc(Cl)cc4)[C@H]12)OC3=O (some centres unmarked) [DETD-28] | 6.7 |
| C=C1C(=O)OC2CC3=C[C@@H](C/C(C)=C/[C@@H](OC(=O)Cc4csc5ccccc45)[C@H]12)OC3=O (some centres unmarked) [DETD-58] | 8.3 |

Tested on: HTB-68 (NRAS mutation)
Experiment: MTT cell viability assay, HTB-68 melanoma
Assay type: cell-based, human
Conditions: Homo sapiens, 24 h
Procedure, shortened: as §2

| SMILES | IC50 [µM] |
| --- | --- |
| C=C1C(=O)OC2CC3=C[C@@H](C/C(C)=C/C(OC(=O)/C=C/c4ccc(Cl)cc4)[C@H]12)OC3=O (some centres unmarked) [DETD-28] | 6.1 |
| C=C1C(=O)OC2CC3=C[C@@H](C/C(C)=C/[C@@H](OC(=O)Cc4csc5ccccc45)[C@H]12)OC3=O (some centres unmarked) [DETD-58] | 3.8 |

Tested on: A2058 (BRAF mutation)
Experiment: MTT cell viability assay, A2058 melanoma
Assay type: cell-based, human
Conditions: Homo sapiens, A2058, 24 h
Procedure, shortened: as §2

| SMILES | IC50 [µM] |
| --- | --- |
| C=C1C(=O)OC2CC3=C[C@@H](C/C(C)=C/C(OC(=O)/C=C/c4ccc(Cl)cc4)[C@H]12)OC3=O (some centres unmarked) [DETD-28] | 4.4 |
| C=C1C(=O)OC2CC3=C[C@@H](C/C(C)=C/[C@@H](OC(=O)Cc4csc5ccccc45)[C@H]12)OC3=O (some centres unmarked) [DETD-58] | 5 |

Tested on: A375 (BRAF mutation)
Experiment: MTT cell viability assay, A375 melanoma
Assay type: cell-based, human
Conditions: Homo sapiens, A-375, 24 h, 24 h, MTT; read-out: IC50 on cell viability, A375 (BRAF mutation)
Procedure, shortened: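 A375 cells were seeded at 2×10^3 to 1×10^4 per well overnight and then exposed to compounds for 24 h to 72 h. Viability was measured by MTT absorbance at OD570 relative to 0.5% DMSO vehicle (100%), and IC50 was derived from it. Combination with PLX4032 was scored by combination index.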

| SMILES | IC50 [µM] |
| --- | --- |
| C=C1C(=O)OC2CC3=C[C@@H](C/C(C)=C/C(OC(=O)/C=C/c4ccc(Cl)cc4)[C@H]12)OC3=O (some centres unmarked) [DETD-28] | 3 |
| C=C1C(=O)OC2CC3=C[C@@H](C/C(C)=C/[C@@H](OC(=O)Cc4csc5ccccc45)[C@H]12)OC3=O (some centres unmarked) [DETD-58] | 2.1 |

Tested on: Melanocyte (Normal cells)
Experiment: MTT cell viability assay, normal melanocytes
Assay type: cell-based, human
Conditions: Homo sapiens, Melanocyte, 24 h
Procedure, shortened: as §2

| SMILES | IC50 [µM] |
| --- | --- |
| C=C1C(=O)OC2CC3=C[C@@H](C/C(C)=C/C(OC(=O)/C=C/c4ccc(Cl)cc4)[C@H]12)OC3=O (some centres unmarked) [DETD-28] | > 10 |
| C=C1C(=O)OC2CC3=C[C@@H](C/C(C)=C/[C@@H](OC(=O)Cc4csc5ccccc45)[C@H]12)OC3=O (some centres unmarked) [DETD-58] | > 10 |

Tested on: RAW264.7 (normal macrophage)
Experiment: MTT cell viability assay, RAW264.7 macrophages
Assay type: cell-based, mouse
Conditions: Mus musculus, RAW264.7, 24 h
Procedure, shortened: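 RAW264.7 macrophages (2×10^5 cells/well) pretreated with compounds 1 h, then incubated 24 h with or without 100 ng/μL LPS. Viability by MTT colorimetric assay run in parallel with Griess nitrite measurement.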

| SMILES | IC50 [µM] |
| --- | --- |
| C=C1C(=O)OC2CC3=C[C@@H](C/C(C)=C/C(OC(=O)/C=C/c4ccc(Cl)cc4)[C@H]12)OC3=O (some centres unmarked) [DETD-28] | > 10 |
| C=C1C(=O)OC2CC3=C[C@@H](C/C(C)=C/[C@@H](OC(=O)Cc4csc5ccccc45)[C@H]12)OC3=O (some centres unmarked) [DETD-58] | > 10 |

Tested on: LPS-induced nitric oxide (NO) production in RAW 264.7 cells
Experiment: Nitric oxide production in LPS-stimulated macrophages (Griess)
Assay type: cell-based, mouse
Conditions: Mus musculus; LPS-stimulated RAW264.7, nitrite 24 h after LPS
Procedure, shortened: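 RAW 264.7 macrophages (2×10^5 cells/well) were pretreated with compound for 1 h and then stimulated with 100 ng/μL LPS for 24 h. NO was measured as nitrite in the medium by the Griess reaction. Viability was checked in parallel by MTT.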

| SMILES | IC50 [µM] |
| --- | --- |
| C=C1C(=O)OC2CC3=C[C@@H](C/C(C)=C/C(OC(=O)/C=C/c4ccc(Cl)cc4)[C@H]12)OC3=O (some centres unmarked) [DETD-28] | 2.1 |
| C=C1C(=O)OC2CC3=C[C@@H](C/C(C)=C/[C@@H](OC(=O)Cc4csc5ccccc45)[C@H]12)OC3=O (some centres unmarked) [DETD-58] | 3.6 |

Tested on: melanoma cell lines B16-F10, MeWo, A375, A2058, HTB-68
Experiment: MTT cell viability assay, all melanoma cell lines
Assay type: cell-based
Conditions: 24 h, read-out: IC50 values over all types of melanoma cell lines
Protocol: Normal or cancer cells (2×10^3 to 1×10^4 cells/well) were seeded in 96-well plate for overnight and treated with different compounds for 24 h to 72 h. Cells growth were determined by MTT-based colorimetric assays according to. Viability of the test cells treated with vehicle (0.5% DMSO) only was defined as 100% viable. Survival of cells after treatment with DETDs was calculated using the following formula: viable cell number (%)=OD570 (treated cell culture)/OD570 (vehicle control)×100.
Several genes are involved in melanoma development and pathology; specifically, mutation in V-raf murine sarcoma viral oncogene homolog B1 (B-RAF) occurs approximately 50-60% and in neuroblastoma RAS viral oncogene homolog (N-RAS) occurs about 30% of malignant melanomas. A spectrum of wild-type or mutated melanoma cell lines including B16-F10, MeWo, A375, A2058, HTB-68, and melanocyte were used to study anti-melanoma cell proliferation activity of parental phytocompound DET and newly synthesized DETDs.

| SMILES | IC50 [µM] |
| --- | --- |
| C=C1C(=O)OC2CC3=C[C@@H](C/C(C)=C/C(OC(=O)/C=C/c4ccc(Cl)cc4)[C@H]12)OC3=O (some centres unmarked) [DETD-28] | 1.6 to 9.9 |
| C=C1C(=O)OC2CC3=C[C@@H](C/C(C)=C/[C@@H](OC(=O)Cc4csc5ccccc45)[C@H]12)OC3=O (some centres unmarked) [DETD-58] | 1.6 to 9.9 |
